Results reported in US5679515A, “Mycobacterial reporter strains and uses thereof” (PathoGenesis Corporation, priority 1994, dated 1997).
Values after ≈ are worked out from the molar mass of the structure shown. Where two headings read alike, the source gives them in different places.

Columns and labels:
[1] = system: Mycobacterium bovis BCG containing pMV361-lux (BCG:361-lux); assay: microbe, parasite or virus in culture; format: cell-based; conditions: Mycobacterium tuberculosis variant bovis BCG, 120 h, read-out: MIC BACTEC
[2] = system: Mycobacterium bovis BCG containing pMV361-lux (BCG:361-lux); assay: microbe, parasite or virus in culture; format: cell-based; conditions: for MIC: Mycobacterium tuberculosis variant bovis BCG, BCG
[3] = system: Mycobacterium bovis BCG containing pMV361-lux (BCG:361-lux); assay: microbe, parasite or virus in culture; format: cell-based; conditions: for MBC: Mycobacterium tuberculosis variant bovis BCG, BCG
rBCG:pMH30-lux [4] = system: rBCG:pMH30-lux; parameters: species or system BCG; BALB/C mice; conditions: mouse, in vivo
rBCG:pMH30-lux [5] = system: rBCG:pMH30-lux; parameters: species or system BCG; BALB/C mice; conditions: mouse, in vivo; remark: listed apart in the source

| Compound | MIC [1] [µg/mL] | similarity in BACTEC and BCG:pMV361-lux assays (susceptibility) [2] | MIC ([2]; 24 h) [µg/mL] | MIC ([2]; 48 h) [µg/mL] | MIC ([2]; 72 h) [µg/mL] | MIC ([2]; 96 h) [µg/mL] | MIC ([2]; 120 h) [µg/mL] | MBC ([3]; 24 h) [µg/mL] | MBC ([3]; 48 h) [µg/mL] | MBC ([3]; 72 h) [µg/mL] | MBC ([3]; 96 h) [µg/mL] | MBC ([3]; 120 h) [µg/mL] | lux activity in spleens vs untreated control mice (rBCG:pMH30-lux [4]) | MBC value in words [3] | reduced luminescence in spleen vs untreated control (rBCG:pMH30-lux [5]) [%] | total reduction in luminescence in spleen (rBCG:pMH30-lux [5]) [%] | lux activity in spleens (rBCG:pMH30-lux [4]) | rBCG-lux luminescence in spleens (rBCG:pMH30-lux [4]) |
| --- | --- | --- | --- | --- | --- | --- | --- | --- | --- | --- | --- | --- | --- | --- | --- | --- | --- | --- |
| NCC[C@H](O)C(=O)N[C@@H]1C[C@H](N)[C@@H](O[C@H]2O[C@H](CN)[C@@H](O)[C@H](O)[C@H]2O)[C@H](O)[C@H]1O[C@H]1O[C@H](CO)[C@@H](O)[C@H](N)[C@H]1O [Amikacin, amikacin] | 0.13 (≈ 0.222 µM) | comparable | > 2 | > 2 | 0.5 (≈ 0.854 µM) | 0.25 (≈ 0.427 µM) | 0.25 (≈ 0.427 µM) | 2 (≈ 3.42 µM) | 0.5 (≈ 0.854 µM) | 0.5 (≈ 0.854 µM) | 0.25 (≈ 0.427 µM) | 0.25 (≈ 0.427 µM) | substantially reduced lux activity |  |  |  |  |  |
| O=C(O)c1cn(C2CC2)c2cc(N3CCNCC3)c(F)cc2c1=O [Ciprofloxacin, ciprofloxacin] | 0.25 (≈ 0.754 µM) | comparable | > 2 | > 2 | 0.5 (≈ 1.51 µM) | 0.5 (≈ 1.51 µM) | 0.5 (≈ 1.51 µM) | > 2 | > 2 |  | 0.5 (≈ 1.51 µM) | 0.5 (≈ 1.51 µM) |  |  |  |  |  |  |
| CC[C@H]1OC(=O)[C@H](C)[C@@H](O[C@H]2C[C@@](C)(OC)[C@@H](O)[C@H](C)O2)[C@H](C)[C@@H](O[C@@H]2O[C@H](C)C[C@H](N(C)C)[C@H]2O)[C@](C)(OC)C[C@@H](C)C(=O)[C@H](C)[C@@H](O)[C@]1(C)O [Clarithromycin, clarithromycin] | 0.25 (≈ 0.334 µM) | comparable | > 0.5 | > 0.5 | 0.5 (≈ 0.668 µM) | 0.25 (≈ 0.334 µM) | 0.25 (≈ 0.334 µM) | > 0.5 | > 0.5 | > 0.5 | > 0.5 | > 0.5 |  | above the highest concentration tested |  |  |  |  |
| CC[C@@H](CO)NCCN[C@@H](CC)CO [Ethambutol, ethambutol] | 2 (≈ 9.79 µM) | comparable | > 8 | > 8 | > 8 | 4 (≈ 19.6 µM) | 4 (≈ 19.6 µM) | > 8 | 8 (≈ 39.2 µM) | 4 to 8 (≈ 19.6 to 39.2 µM) | 4 (≈ 19.6 µM) | 4 (≈ 19.6 µM) |  |  | 30 | 75 | reduced lux activity |  |
| NNC(=O)c1ccncc1 [Isoniazid, isoniazid] | 0.06 (≈ 0.438 µM) |  | > 0.5 | > 0.5 | > 0.5 | 0.06 (≈ 0.438 µM) | 0.06 (≈ 0.438 µM) | > 0.5 | 0.13 (≈ 0.948 µM) | 0.13 (≈ 0.948 µM) | 0.13 (≈ 0.948 µM) | 0.13 (≈ 0.948 µM) |  |  | 50 | 90 | reduced lux activity |  |
| CC1COc2c(N3CCN(C)CC3)c(F)cc3c(=O)c(C(=O)O)cn1c23 (centres unmarked) [OFX, ofloxacin] |  |  |  |  |  |  |  |  |  |  |  |  | substantially reduced lux activity |  |  |  |  |  |
| CO[C@H]1/C=C/O[C@@]2(C)Oc3c(C)c(O)c4c(O)c(c(/C=N/N5CCN(C)CC5)c(O)c4c3C2=O)NC(=O)/C(C)=C\C=C\[C@H](C)[C@H](O)[C@@H](C)[C@@H](O)[C@@H](C)[C@H](OC(C)=O)[C@@H]1C [Rifampin, rifampin] | 0.03 (≈ 0.0365 µM) | comparable | > 0.25 | > 0.25 | > 0.25 | 0.06 (≈ 0.0729 µM) | 0.06 (≈ 0.0729 µM) | > 0.25 | > 0.25 | > 0.25 | 0.13 (≈ 0.158 µM) | 0.13 (≈ 0.158 µM) |  |  |  |  |  | reduced rBCG-lux luminescence |
| [H]/N=C(/N)N[C@H]1[C@H](O)[C@@H](O)[C@H](O[C@@H]2O[C@@H](C)[C@](O)(C=O)[C@H]2O[C@@H]2O[C@@H](CO)[C@H](O)[C@@H](O)[C@@H]2NC)[C@@H](N/C(N)=N\[H])[C@@H]1O [Streptomycin, streptomycin] | 0.25 (≈ 0.43 µM) | comparable | > 2 | 1 (≈ 1.72 µM) | 0.5 (≈ 0.86 µM) | 0.25 (≈ 0.43 µM) | 0.25 (≈ 0.43 µM) | > 2 | 0.5 (≈ 0.86 µM) | 0.5 (≈ 0.86 µM) | 0.25 (≈ 0.43 µM) | 0.25 (≈ 0.43 µM) |  |  |  |  |  |  |
